Source: the NIST ThermoML archive (doi:10.1021/je600568w)

Legend:
[1] = 101 kPa, Liquid; for viscosity: Capillary tube (Ostwald / Ubbelohde) method
[2] = xn = mol fraction of the nth substance listed; conditions: 101 kPa, Liquid; for viscosity: Capillary tube (Ostwald / Ubbelohde) method

CCOC(=O)C(C)O (racemic) [DL-ethyl lactate]
[1]
Conditions	mass density [kg/m3]	viscosity [mPa·s]
298.15 K	1029.1	2.398
308.15 K	1018.7	1.863
318.15 K	1007.5	1.494

C=C(C)C(=O)OCCO [2-hydroxyethyl 2-methyl-2-propenoate]
[1]
Conditions	mass density [kg/m3]	viscosity [mPa·s]
298.15 K	1067.1	5.784
308.15 K	1057.7	4.194
318.15 K	1048.6	3.181

C=C(C)C(=O)OCCO [2-hydroxyethyl 2-methyl-2-propenoate] + CCOC(=O)C(C)O
[2]
Conditions	mass density, 298.15 K [kg/m3]	mass density, 308.15 K [kg/m3]	mass density, 318.15 K [kg/m3]	viscosity, 298.15 K [mPa·s]	viscosity, 308.15 K [mPa·s]	viscosity, 318.15 K [mPa·s]
x2 = 0	1067.1	1057.7	1048.6	5.784	4.194	3.181
x2 = 0.1	1063.9	1054.7	1045.6	5.23	3.833	2.938
x2 = 0.2	1060.6	1051.4	1042.2	4.75	3.513	2.71
x2 = 0.3	1057.1	1047.9	1038.5	4.36	3.215	2.493
x2 = 0.4	1053.5	1044.3	1034.6	3.989	2.975	2.311
x2 = 0.5	1049.8	1040.4	1030.6	3.663	2.742	2.141
x2 = 0.6	1045.9	1036.4	1026.4	3.343	2.526	1.985
x2 = 0.7	1041.8	1032.2	1022	3.041	2.323	1.834
x2 = 0.8	1037.7	1027.9	1017.5	2.767	2.127	1.689
x2 = 0.9	1033.4	1023.4	1012.8	2.524	1.949	1.556

C=C(C)C(=O)O [2-methyl-2-propenoic acid]
[1]
Conditions	mass density [kg/m3]	viscosity [mPa·s]
298.15 K	1009.5	1.267
308.15 K	999.4	1.078
318.15 K	989.2	0.945

C=C(C)C(=O)O [2-methyl-2-propenoic acid] + CCOC(=O)C(C)O
[2]
Conditions	mass density, 298.15 K [kg/m3]	mass density, 308.15 K [kg/m3]	mass density, 318.15 K [kg/m3]	viscosity, 298.15 K [mPa·s]	viscosity, 308.15 K [mPa·s]	viscosity, 318.15 K [mPa·s]
x2 = 0	1009.5	999.4	989.2	1.267	1.078	0.945
x2 = 0.1	1012.1	1002	991.7	1.422	1.19	1.02
x2 = 0.2	1014.6	1004.6	994.5	1.66	1.368	1.154
x2 = 0.3	1017	1007.4	997.3	1.933	1.567	1.306
x2 = 0.3999	1019.8	1010.2	999.9	2.181	1.742	1.43
x2 = 0.5	1022.5	1012.7	1002.2	2.378	1.87	1.52
x2 = 0.6	1024.7	1014.8	1004.2	2.465	1.929	1.551
x2 = 0.6999	1026.5	1016.5	1005.8	2.532	1.967	1.579
x2 = 0.8	1027.9	1017.8	1007.2	2.539	1.962	1.567
x2 = 0.9001	1028.7	1018.6	1008.2	2.471	1.907	1.526
